Test results published in paper PMC9804871, “Effect of Opicapone on Levodopa Pharmacokinetics in Patients with Fluctuating Parkinson's Disease” (Movement Disorders, 2022).

Tests used:
Format in all cases: in vivo, human (patients with PD)
[1] = test system: patients with PD and end-of-dose motor fluctuations; test: 24-hour patient Hauser on/off diary; details: for ON-time With Non-Troublesome Dyskinesia / ON-time With Troublesome Dyskinesia / ON-time Without Dyskinesia / Total OFF-time / Total ON-time: 24-hour Hauser diary, mean (SD); for 24-h total off time, geometric mean (90% CI) / 24-h total on time, geometric mean (90% CI): N 12
Experimental: (§1) Clinical and safety/tolerability outcomes were also assessed as exploratory secondary outcomes. Clinical outcomes included on and off time assessed using patient‐rated tools. The timing of on and off states was registered (in real time) by the investigators during the matching 12‐hour pharmacokinetic evaluation (as such applied on pharmacokinetics days only), and patients also completed 24‐hour patient Hauser on/off diary charts[21] (in 30‐minute blocks) during the 3 days before each pharmacokinetic visit. Diary states of interest were off time and on time, including on without dyskinesia, on with nontroublesome dyskinesia, and on with troublesome dyskinesia. In addition, the Patient Global Impression of Change (PGI‐C) of opicapone 50 mg was evaluated at the end of the LD/CD 400/100 mg plus opicapone treatment compared with before the start of opicapone treatment.[22] Safety and tolerability endpoints included treatment‐emergent adverse events (TEAEs), serious TEAEs, and TEAEs leading to discontinuation.
(§2) Clinical outcomes are also presented descriptively. A paired t test was used for the comparison of 12‐hour off and on time, 24‐hour off and on time, time to on, and time to best on between each opicapone‐containing regimen and the regimen without opicapone. Estimates of mean difference and corresponding 90% CIs were reported for all main variables.

[2] = test system: patients with PD and end-of-dose motor fluctuations; test: 12-hour patient on/off monitoring on pharmacokinetics days; details: for OFF-time / ON-time / ON-time With Dyskinesia / ON-time Without Dyskinesia / Time to Best-ON / Time to ON: mean; for 12-hour OFF-time / 12-hour ON-time / 12-hour ON-time With Dyskinesia / 12-hour ON-time Without Dyskinesia / 12-hour Time to Best-ON / 12-hour Time to ON: mean (SD)
Experimental: as §1, §2

[3] = 12-hour 3-O-methyldopa plasma pharmacokinetics; details: for 3-O-methyldopa Cmax,max, Geometric Mean (90% CI): N 12; for 3-O-methyldopa tmax: median; for 3-O-methyldopa Cmax,max: mean (%CV)
Experimental: Following screening, all patients received a daily LD/CD dose of 500/125 mg for 2 weeks, administered as LD/CD 100/25 mg five times a day (five‐intake LD/CD 500/125 mg), fixed every 3 hours (from 8 AM to 8 PM) at pharmacokinetic day. Patients were then randomly assigned (1:1) to receive two different regimens of opicapone 50 mg plus LD/CD (400/100 mg daily) for an additional 2 weeks. • Patients on opicapone regimen 1 received LD/CD 100/25 mg four times a day plus opicapone 50 mg at least 1 hour after the last administration of LD/CD each day (four‐intake LD/CD 400/100 mg plus opicapone 50 mg), fixed every 4 hours (from 8 AM to 8 PM) at pharmacokinetic day. • Patients on opicapone regimen 2 received alternating LD/CD 100/25 mg and 50/12.5 mg doses (ie, 100/25 mg, 50/12.5 mg, 100/25 mg, 50/12.5 mg, and 100/25 mg) five times a day plus opicapone 50 mg at least 1 hour after the last administration of LD/CD each day (five‐intake LD/CD 400/100 mg plus opicapone 50 mg), fixed every 3 hours (from 8 AM to 8 PM) at pharmacokinetic day.
The primary objective of the study was to evaluate the pharmacokinetics of LD in the two opicapone LD/CD 400/100 mg dosing regimens (four and five intakes) when compared with the five‐intake LD/CD 500/125 mg regimen without opicapone. The pharmacokinetics study endpoint was set after 2 weeks of each treatment regimen (ie, at the end of the initial five‐intake LD/CD 500/125 mg treatment regimen and at the end of the LD/CD 400/100 mg plus opicapone treatment). Pharmacokinetic evaluation occurred over 12 hours with sampling every 30 minutes, except for the last sample following each LD dose in the opicapone plus four LD intake regimen, which was sampled at 1 hour. The main pharmacokinetics parameters assessed included maximum observed plasma concentration (Cmax), time to achieve peak plasma levels (tmax), minimum observed plasma concentration (Cmin), plasma elimination half‐life (t1/2), area under the curve (AUC), and fluctuation index (FI; as an expression of peak‐to‐trough fluctuation, Cmax, and Cmin, relative to average concentration [Cavg]). The pharmacokinetics of the LD metabolite 3‐O‐methyldopa (3‐OMD) was also evaluated.
Descriptive statistics were used to summarize the pharmacokinetics parameters for LD and 3‐OMD for each of the three regimens. […] No formal comparison was performed between opicapone regimens. Pharmacokinetic parameters were evaluated within the same population for each LD/CD 400/100 mg plus opicapone treatment regimen compared with the LD/CD 500/125 mg without opicapone regimen. Geometric mean ratios and corresponding 90% confidence intervals (CIs) for the LD and 3‐OMD log‐transformed pharmacokinetics parameters (AUCtotal, Cmax,max and Cmin,min [only for LD]) were calculated using a paired t test for the comparison between the five‐intake LD/CD 500/125 mg treatment without opicapone and each of the two LD/CD 400/100 mg plus opicapone regimens; only data from completers (patients with data for both regimens) were used for this analysis.

[4] = 5-intake LD/CD 500/125mg vs 4-intake LD/CD 400/100mg plus OPC 50mg
[5] = 5-intake LD/CD 500/125mg vs 5-intake LD/CD 400/100mg plus OPC 50mg
[6] = five-intake levodopa/carbidopa 500/125 mg vs five-intake levodopa/carbidopa 400/100 mg plus opicapone 50 mg
[7] = five-intake levodopa/carbidopa 500/125 mg vs four-intake levodopa/carbidopa 400/100 mg plus opicapone 50 mg
[8] = 5-intake LD/CD 500/125mg vs 4-intake LD/CD 400/100mg plus OPC 50mg, 1st LD/CD intake
[9] = 5-intake LD/CD 500/125mg vs 4-intake LD/CD 400/100mg plus OPC 50mg, 2nd LD/CD intake
[10] = 5-intake LD/CD 500/125mg vs 4-intake LD/CD 400/100mg plus OPC 50mg, 3rd LD/CD intake
[11] = 5-intake LD/CD 500/125mg vs 4-intake LD/CD 400/100mg plus OPC 50mg, 4th LD/CD intake
[12] = 5-intake LD/CD 500/125mg vs 5-intake LD/CD 400/100mg plus OPC 50mg, 1st LD/CD intake
[13] = 5-intake LD/CD 500/125mg vs 5-intake LD/CD 400/100mg plus OPC 50mg, 2nd LD/CD intake
[14] = 5-intake LD/CD 500/125mg vs 5-intake LD/CD 400/100mg plus OPC 50mg, 3rd LD/CD intake
[15] = 5-intake LD/CD 500/125mg vs 5-intake LD/CD 400/100mg plus OPC 50mg, 4th LD/CD intake
[16] = five-intake levodopa/carbidopa 500/125 mg vs five-intake levodopa/carbidopa 400/100 mg plus opicapone 50 mg, N 9
[17] = five-intake levodopa/carbidopa 500/125 mg vs four-intake levodopa/carbidopa 400/100 mg plus opicapone 50 mg, N 10
[18] = five-intake levodopa/carbidopa 500/125 mg vs four-intake levodopa/carbidopa 400/100 mg plus opicapone 50 mg, N 12
[19] = 5-intake LD/CD 500/125mg vs 4-intake LD/CD 400/100mg plus OPC 50mg, 1st LD/CD intake, mean
[20] = 5-intake LD/CD 500/125mg vs 4-intake LD/CD 400/100mg plus OPC 50mg, 2nd LD/CD intake, mean
[21] = 5-intake LD/CD 500/125mg vs 4-intake LD/CD 400/100mg plus OPC 50mg, 3rd LD/CD intake, mean
[22] = 5-intake LD/CD 500/125mg vs 4-intake LD/CD 400/100mg plus OPC 50mg, 4th LD/CD intake, mean
[23] = 5-intake LD/CD 500/125mg vs 5-intake LD/CD 400/100mg plus OPC 50mg, 1st LD/CD intake, mean
[24] = 5-intake LD/CD 500/125mg vs 5-intake LD/CD 400/100mg plus OPC 50mg, 2nd LD/CD intake, mean
[25] = 5-intake LD/CD 500/125mg vs 5-intake LD/CD 400/100mg plus OPC 50mg, 3rd LD/CD intake, mean
[26] = 5-intake LD/CD 500/125mg vs 5-intake LD/CD 400/100mg plus OPC 50mg, 4th LD/CD intake, mean

levodopa/carbidopa [LD/CD]
ON-time With Non-Troublesome Dyskinesia [1, 4]: 86.7 (72.6) min | ON-time With Troublesome Dyskinesia [1, 4]: 35.0 (26.5) min | ON-time Without Dyskinesia [1, 4]: 411.7 (122.6) min | Total OFF-time [1, 4]: 442.50 (96.3) min | Total ON-time [1, 4]: 488.3 (110.9) min | ON-time With Non-Troublesome Dyskinesia [1, 5]: 66.4 (48.0) min | ON-time With Troublesome Dyskinesia [1, 5]: 20.0 (24.49) min | ON-time Without Dyskinesia [1, 5]: 446.7 (110.0) min | Total OFF-time [1, 5]: 431.70 (100.3) min | Total ON-time [1, 5]: 519.2 (91.2) min | 24-h total off time, geometric mean (90% CI) [1, 6]: 420.3 (369.8, 477.6) min | 24-h total on time, geometric mean (90% CI) [1, 6]: 512.5 (470.9, 557.9) min | 24-h total off time, geometric mean (90% CI) [1, 7]: 433.0 (386.4, 485.0) min | 24-h total on time, geometric mean (90% CI) [1, 7]: 476.5 (421.9, 538.2) min | OFF-time [2, 8]: 79.8 min | ON-time [2, 8]: 100.3 min | ON-time With Dyskinesia [2, 8]: 45.0 min | ON-time Without Dyskinesia [2, 8]: 92.8 min | Time to Best-ON [2, 8]: 55.0 min | Time to ON [2, 8]: 38.9 min | OFF-time [2, 9]: 106.9 min | ON-time [2, 9]: 73.1 min | ON-time With Dyskinesia [2, 9]: 23.3 min | ON-time Without Dyskinesia [2, 9]: 67.3 min | Time to Best-ON [2, 9]: 58.8 min | Time to ON [2, 9]: 50.0 min | OFF-time [2, 10]: 89.5 min | ON-time [2, 10]: 90.5 min | ON-time With Dyskinesia [2, 10]: 23.8 min | ON-time Without Dyskinesia [2, 10]: 81.8 min | Time to Best-ON [2, 10]: 62.0 min | Time to ON [2, 10]: 40.5 min | OFF-time [2, 11]: 84.6 min | ON-time [2, 11]: 91.3 min | ON-time With Dyskinesia [2, 11]: 22.5 min | ON-time Without Dyskinesia [2, 11]: 87.5 min | Time to Best-ON [2, 11]: 57.9 min | Time to ON [2, 11]: 42.1 min | 12-hour OFF-time [2, 4]: 353.3 (80.46) min | 12-hour ON-time [2, 4]: 347.5 (92.53) min | 12-hour ON-time With Dyskinesia [2, 4]: 60.0 (45.14) min | 12-hour ON-time Without Dyskinesia [2, 4]: 322.5 (106.27) min | 12-hour Time to Best-ON [2, 4]: 59.22 (14.92) min | 12-hour Time to ON [2, 4]: 46.14 (12.38) min | OFF-time [2, 12]: 88.5 min | ON-time [2, 12]: 91.5 min | ON-time With Dyskinesia [2, 12]: 33.8 min | ON-time Without Dyskinesia [2, 12]: 79.2 min | Time to Best-ON [2, 12]: 62.7 min | Time to ON [2, 12]: 41.5 min | OFF-time [2, 13]: 103.0 min | ON-time [2, 13]: 77.0 min | ON-time With Dyskinesia [2, 13]: 27.5 min | ON-time Without Dyskinesia [2, 13]: 71.5 min | Time to Best-ON [2, 13]: 51.7 min | Time to ON [2, 13]: 36.0 min | OFF-time [2, 14]: 86.5 min | ON-time [2, 14]: 93.5 min | ON-time With Dyskinesia [2, 14]: 31.7 min | ON-time Without Dyskinesia [2, 14]: 74.5 min | Time to Best-ON [2, 14]: 50.0 min | Time to ON [2, 14]: 44.5 min | OFF-time [2, 15]: 96.0 min | ON-time [2, 15]: 81.0 min | ON-time With Dyskinesia [2, 15]: 27.5 min | ON-time Without Dyskinesia [2, 15]: 75.5 min | Time to Best-ON [2, 15]: 57.5 min | Time to ON [2, 15]: 52.5 min | 12-hour OFF-time [2, 5]: 348.1 (103.9) min | 12-hour ON-time [2, 5]: 320.1 (83.80) min | 12-hour ON-time With Dyskinesia [2, 5]: 72.5 (24.24) min | 12-hour ON-time Without Dyskinesia [2, 5]: 280.5 (71.44) min | 12-hour Time to Best-ON [2, 5]: 55.46 (14.86) min | 12-hour Time to ON [2, 5]: 43.13 (11.32) min | 12-h off time, geometric mean (90% CI) [2, 16]: 376.9 (349.9, 406.0) min | 12-h on time, geometric mean (90% CI) [2, 16]: 333.1 (298.8, 371.2) min | 12-h time to on, geometric mean (90% CI) ([2]; five-intake levodopa/carbidopa 500/125 mg vs five-intake levodopa/carbidopa 400/100 mg plus opicapone 50 mg, N 10): 41.84 (36.03, 48.59) min | 12-h time to best on, geometric mean (90% CI) ([2]; five-intake levodopa/carbidopa 500/125 mg vs five-intake levodopa/carbidopa 400/100 mg plus opicapone 50 mg, N 12): 53.97 (47.84, 60.89) min | 12-h off time, geometric mean (90% CI) [2, 17]: 356.4 (313.2, 405.5) min | 12-h on time, geometric mean (90% CI) [2, 17]: 340.3 (292.0, 396.7) min | 12-h time to best on, geometric mean (90% CI) [2, 18]: 57.62 (50.84, 65.31) min | 12-h time to on, geometric mean (90% CI) [2, 18]: 44.62 (38.75, 51.39) min | 3-O-methyldopa Cmax,max, Geometric Mean (90% CI) ([3]; 5-intake LD/CD 500/125mg vs 4-intake LD/CD 400/100mg +OPC 50mg): 4264 (3631, 5006) ng/mL | 3-O-methyldopa AUCτ [3, 19]: 10068^a h*ng/mL | 3-O-methyldopa Cmax [3, 19]: 3453 ng/mL | 3-O-methyldopa Cmin [3, 19]: 3021 ng/mL | 3-O-methyldopa tmax [3, 8]: 1.75 h | 3-O-methyldopa Cmax [3, 20]: 3619 ng/mL | 3-O-methyldopa Cmin [3, 20]: 3077 ng/mL | 3-O-methyldopa tmax [3, 9]: 2.5 h | 3-O-methyldopa AUCτ [3, 21]: 14278^b h*ng/mL | 3-O-methyldopa Cmax [3, 21]: 4011 ng/mL | 3-O-methyldopa Cmin [3, 21]: 3437 ng/mL | 3-O-methyldopa tmax [3, 10]: 2.71 h | 3-O-methyldopa AUCτ ([3]; 5-intake LD/CD 500/125mg vs 4-intake LD/CD 400/100mg plus OPC 50mg, 4th LD/CD intake, 1 patient): 13519^c h*ng/mL | 3-O-methyldopa Cmax [3, 22]: 4435 ng/mL | 3-O-methyldopa Cmin [3, 22]: 3766 ng/mL | 3-O-methyldopa tmax [3, 11]: 2.5 h | 3-O-methyldopa Cmax,max [3, 4]: 4447 (29.2) ng/mL | 3-O-methyldopa Cmax,max, Geometric Mean (90% CI) ([3]; 5-intake LD/CD 500/125mg vs 5-intake LD/CD 400/100mg +OPC 50mg): 4201 (3733, 4727) ng/mL | 3-O-methyldopa AUCτ [3, 23]: 8991^g h*ng/mL | 3-O-methyldopa Cmax [3, 23]: 3191 ng/mL | 3-O-methyldopa Cmin [3, 23]: 2868 ng/mL | 3-O-methyldopa tmax [3, 12]: 1.5 h | 3-O-methyldopa AUCτ [3, 24]: 9002^d h*ng/mL | 3-O-methyldopa Cmax [3, 24]: 3406 ng/mL | 3-O-methyldopa Cmin [3, 24]: 2907 ng/mL | 3-O-methyldopa tmax [3, 13]: 2.5 h | 3-O-methyldopa AUCτ ([3]; 5-intake LD/CD 500/125mg vs 5-intake LD/CD 400/100mg plus OPC 50mg, 3rd LD/CD intake, 1 patient): 11951^c h*ng/mL | 3-O-methyldopa Cmax [3, 25]: 3875 ng/mL | 3-O-methyldopa Cmin [3, 25]: 3151 ng/mL | 3-O-methyldopa tmax [3, 14]: 2.5 h | 3-O-methyldopa Cmax [3, 26]: 4170 ng/mL | 3-O-methyldopa Cmin [3, 26]: 3586 ng/mL | 3-O-methyldopa tmax [3, 15]: 2.71 h | 3-O-methyldopa Cmax,max [3, 5]: 4300 (22.4) ng/mL
